Here are results for ten compounds from patent US10485235B2, “Aryloxypyrimidinyl ethers as herbicides” (FMC Corporation, priority 2015, dated 2019).

One may read the melting point as the temperature, or range, at which the solid turns liquid.

The subject of series [1] is ragweed (common ragweed, Ambrosia elatior). The experiment in a line: Test A preemergence, ragweed. Format: in vivo. The note with it: Ambrosia artemisiifolia, pre-emergence, 240 h, Preemergence, 0 to 100 scale (0 no effect, 100 complete control), read-out: Plant response rating, Ragweed; for pest or weed control at 31 g/ha: 31 g ai/ha; for pest or weed control at 125 g/ha: 125 g ai/ha; for pest or weed control at 500 g/ha: 500 g ai/ha. The method in brief: (§1)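 Planted seeds in loam soil mixed with sand; sprayed soil directly (pre). Grew seedlings to one- to two-leaf stage, 2–10 cm; sprayed foliage (post). Held in greenhouse ~10 days. Rated injury visually vs untreated controls, 0–100.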

Series [2] has as its system barnyardgrass (Echinochloa crus-galli). As to the kind of experiment: Test A preemergence, barnyardgrass. It is filed as in vivo. The note with it: Echinochloa crus-galli, pre-emergence, 240 h, Preemergence, 0 to 100 scale (0 no effect, 100 complete control), read-out: Plant response rating, Barnyardgrass; for pest or weed control at 31 g/ha: 31 g ai/ha; for pest or weed control at 125 g/ha: 125 g ai/ha; for pest or weed control at 500 g/ha: 500 g ai/ha. The method in brief:
as §1

The subject of another series is corn (Zea mays). The experiment in a line: Test A postemergence, corn. It is filed as in vivo. The note with it: Zea mays, post-emergence, 240 h, postemergence, 0 to 100 scale, 0 is no effect, 100 is complete control, approximately 10 days; for Corn plant response rating (crop injury, 0 = no effect, 100 = complete kill) at 31 g/ha: 31 g ai/ha; for Corn plant response rating (crop injury, 0 = no effect, 100 = complete kill) at 125 g/ha: 125 g ai/ha; for Corn plant response rating (crop injury, 0 = no effect, 100 = complete kill) at 500 g/ha: 500 g ai/ha. The method in brief:
as §1

Series [3] has as its system barnyardgrass (Echinochloa crus-galli). As to the kind of experiment: Test A postemergence, barnyardgrass. Format: in vivo. The note with it: Echinochloa crus-galli, post-emergence, 240 h, postemergence, 0 to 100 scale, 0 is no effect, 100 is complete control, approximately 10 days, read-out: Plant response rating, Barnyardgrass; for pest or weed control at 31 g/ha: 31 g ai/ha; for pest or weed control at 125 g/ha: 125 g ai/ha; for pest or weed control at 500 g/ha: 500 g ai/ha. The method in brief: as §1

In series [4] the test system is ragweed (common ragweed, Ambrosia elatior). As to the kind of experiment: Test A postemergence, ragweed. Format: in vivo. The note with it: Ambrosia artemisiifolia, post-emergence, 240 h, postemergence, 0 to 100 scale, 0 is no effect, 100 is complete control, approximately 10 days, read-out: Plant response rating, Ragweed; for pest or weed control at 31 g/ha: 31 g ai/ha; for pest or weed control at 125 g/ha: 125 g ai/ha; for pest or weed control at 500 g/ha: 500 g ai/ha. The method in brief: as §1

For series [5], the system named is ducksalad (Heteranthera limosa). The experiment in a line: Test B flooded paddy test, ducksalad. Format: in vivo. The note with it: Heteranthera limosa; 250 g ai/ha, Flood; visual rating after 13 to 15 days; scale 0 to 100, 0 is no effect, 100 is complete control; read-out: Plant response rating, Ducksalad. The method in brief: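 Plants grown to the 2-leaf stage; pots flooded to 3 cm above soil and compounds applied directly into the paddy water, depth held throughout. After 13 to 15 days in the greenhouse, injury was rated visually against untreated controls on a 0–100 scale (0 no effect, 100 complete control).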

Structures are written as SMILES.

For the compound `N#Cc1cccc(Oc2ncc(Cl)cn2)c1OCC(F)(F)F` [Compound 1], the pest or weed control at 31 g/ha in series [1] came out at 0%; in series [2], 10%; in series [3] it was 0%; in series [4], 10%. The pest or weed control at 125 g/ha is 100% in series [1], 80% in series [2], 30% in series [3] and 10% in series [4]. Further, the Corn plant response rating (crop injury, 0 = no effect, 100 = complete kill) at 31 g/ha in the series with corn (Zea mays) came to 10%. Besides, in the series on corn (Zea mays), the Corn plant response rating (crop injury, 0 = no effect, 100 = complete kill) at 125 g/ha came out at 10%.

On to `N#Cc1cccc(Oc2ncc(Cl)cn2)c1OCC(F)(F)C(F)(F)F` [Compound 10, 3-[(5-chloro-2-pyrimidinyl)oxy]-2-(2,2,3,3,3-pentafluoropropoxy)benzonitrile], for which the pest or weed control at 125 g/ha in series [1] came to 20%; in series [2] it was 100%; in series [3], 90%; in series [4], 0%. The pest or weed control at 500 g/ha was found to be 10% in series [1], 100% in series [2], 100% in series [3] and 50% in series [4]. Besides, in series [5], the pest or weed control at 250 g/ha came to 70%. This compound registered a Corn plant response rating (crop injury, 0 = no effect, 100 = complete kill) at 125 g/ha with corn (Zea mays) of 70%. This compound displayed a Corn plant response rating (crop injury, 0 = no effect, 100 = complete kill) at 500 g/ha with corn (Zea mays) of 100%.

As to `CCCCOc1c(Br)cccc1Oc1ncc(Cl)cn1` [Compound 13, 2-[3-bromo-2-(butoxy)phenoxy]-5-chloropyrimidine], the pest or weed control at 125 g/ha in series [1] was found to be 0%; in series [2], 100%; in series [3], 90%; in series [4], 0%. Further, the pest or weed control at 500 g/ha is 10% in series [1], 100% in series [2], 100% in series [3] and 10% in series [4]. Moreover, the pest or weed control at 250 g/ha in series [5] was 50%. The compound also had a Corn plant response rating (crop injury, 0 = no effect, 100 = complete kill) at 125 g/ha in the series with corn (Zea mays) of 30%. The same compound came in with a Corn plant response rating (crop injury, 0 = no effect, 100 = complete kill) at 500 g/ha with corn (Zea mays) of 90%.

As to `FC(F)C(F)(F)COc1c(Br)cccc1Oc1ncc(Cl)cn1` [Compound 18, 2-[3-bromo-2-(2,2,3,3-tetrafluoropropoxy)phenoxy]-5-chloropyrimidine], the pest or weed control at 125 g/ha in series [1] amounted to 0%; in series [2], 100%; in series [3], 30%; in series [4], 0%. In addition, the pest or weed control at 500 g/ha stood at 10% in series [1], 100% in series [2], 100% in series [3] and 20% in series [4]. Further, the pest or weed control at 250 g/ha in series [5] is 30%. This compound also registered a Corn plant response rating (crop injury, 0 = no effect, 100 = complete kill) at 125 g/ha with corn (Zea mays) of 20%. Further, in the series with corn (Zea mays), the Corn plant response rating (crop injury, 0 = no effect, 100 = complete kill) at 500 g/ha is 30%.

For the compound `N#Cc1cccc(Oc2ncc(Cl)cn2)c1OCCC(F)(F)F` [Compound 23, 3-[(5-chloro-2-pyrimidinyl)oxy]-2-(3,3,3-trifluoropropoxy)benzonitrile], the pest or weed control at 31 g/ha was 0% in series [1], 70% in series [2], 50% in series [3] and 0% in series [4]. Also, the pest or weed control at 125 g/ha stood at 90% in series [1], 100% in series [2], 90% in series [3] and 30% in series [4]. Also, the pest or weed control at 250 g/ha in series [5] was determined as 100%. In the series with corn (Zea mays), this compound had a Corn plant response rating (crop injury, 0 = no effect, 100 = complete kill) at 31 g/ha of 10%. Besides, the Corn plant response rating (crop injury, 0 = no effect, 100 = complete kill) at 125 g/ha with corn (Zea mays) is 90%.

For the compound `Fc1cccc(Oc2ncc(Cl)cn2)c1OCC(F)(F)F` [Compound 28], the pest or weed control at 125 g/ha in series [1] was found to be 0%; in series [2], 10%; in series [3], 0%; in series [4], 0%. The pest or weed control at 500 g/ha in series [1] worked out at 0%; in series [2] it was 70%; in series [3], 20%; in series [4] it was 0%. In addition, the pest or weed control at 250 g/ha in series [5] was found to be 30%. Moreover, in the series on corn (Zea mays), the Corn plant response rating (crop injury, 0 = no effect, 100 = complete kill) at 125 g/ha stood at 0%. In the series on corn (Zea mays), this compound showed a Corn plant response rating (crop injury, 0 = no effect, 100 = complete kill) at 500 g/ha of 10%.

As to `CCCCOc1c(C#N)cccc1Oc1ncc(Cl)cn1` [Compound 35, 2-butoxy-3-[(5-chloro-2-pyrimidinyl)oxy]benzonitrile], the pest or weed control at 125 g/ha stood at 10% in series [1], 100% in series [2], 80% in series [3] and 10% in series [4]. Further, the pest or weed control at 500 g/ha turned out to be 30% in series [1], 100% in series [2], 100% in series [3] and 20% in series [4]. For the same compound, in series [5], the pest or weed control at 250 g/ha stood at 65%. The compound further displayed a Corn plant response rating (crop injury, 0 = no effect, 100 = complete kill) at 125 g/ha with corn (Zea mays) of 20%. In addition, in the series with corn (Zea mays), the Corn plant response rating (crop injury, 0 = no effect, 100 = complete kill) at 500 g/ha is 70%.

`N#Cc1cccc(Oc2ncc(F)cn2)c1OCC(F)(F)F` [Compound 41] returned a melting point of 58 to 63 °C. Besides, in series [1], the pest or weed control at 31 g/ha worked out at 0% and the pest or weed control at 125 g/ha turned out to be 20%. Besides, in series [2], the pest or weed control at 31 g/ha worked out at 0% and the pest or weed control at 125 g/ha amounted to 40%. Also, in the series with corn (Zea mays), the Corn plant response rating (crop injury, 0 = no effect, 100 = complete kill) at 31 g/ha was 0% and the Corn plant response rating (crop injury, 0 = no effect, 100 = complete kill) at 125 g/ha turned out to be 10%. In addition, in series [3], the pest or weed control at 31 g/ha is 0% and the pest or weed control at 125 g/ha amounted to 0%. In series [4], the pest or weed control at 31 g/ha is 10% and the pest or weed control at 125 g/ha was determined as 10%.

For `FC(F)(F)COc1c(Cl)cccc1Oc1ncc(Cl)cn1` [Compound 42], the pest or weed control at 31 g/ha in series [1], in series [2], in series [3] and in series [4] was 0% throughout. In addition, the pest or weed control at 125 g/ha in series [1] came to 0%; in series [2], 10%; in series [3] it was 10%; in series [4], 0%. For the same compound, the pest or weed control at 250 g/ha in series [5] amounted to 70%. The compound also came in with a Corn plant response rating (crop injury, 0 = no effect, 100 = complete kill) at 31 g/ha in the series with corn (Zea mays) of 0%. Moreover, the Corn plant response rating (crop injury, 0 = no effect, 100 = complete kill) at 125 g/ha in the series on corn (Zea mays) came to 10%.

For `Cc1cccc(Oc2ncc(Cl)cn2)c1OCC(F)(F)F` [Compound 63], the pest or weed control at 31 g/ha in series [1], in series [2], in series [3] and in series [4] was 0% in each case. In addition, the pest or weed control at 125 g/ha in series [1], in series [2], in series [3] and in series [4] was 0% throughout. Also, the pest or weed control at 250 g/ha in series [5] was 100%. Moreover, in the series on corn (Zea mays), the Corn plant response rating (crop injury, 0 = no effect, 100 = complete kill) at 31 g/ha was determined as 0%. The same compound yielded a Corn plant response rating (crop injury, 0 = no effect, 100 = complete kill) at 125 g/ha in the series on corn (Zea mays) of 0%.
